# From US10420341B2, “Herbicidal phenylpyrimidines” (BASF SE, priority 2015, dated 2019)
# Experiments:
# [1] = tested on: APESV; assay: greenhouse pre-emergence herbicidal test; format: in vivo, Apera spica-venti; conditions: pre-emergence method, scale from 0 to 100
# Method in brief: (§1)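 Greenhouse plants receive the aqueous active ingredient straight after sowing, before emergence. Response is scored from 0 (no damage) to 100 (no emergence or complete kill of aerial parts) over a 2-4 week period.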
# [2] = tested on: ECHCG; assay: greenhouse post-emergence herbicidal test; format: in vivo, Echinocloa crus-galli; conditions: post-emergence method, scale from 0 to 100
# Method in brief: (§2)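 Plants grown to 3 to 15 cm, then sprayed with active ingredient suspended or emulsified in water; kept at 10-25° C. or 20-35° C. by species. Damage scored after 2 to 4 weeks on a 0 to 100 scale, 100 meaning no emergence or complete aerial destruction, 0 normal growth.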
# [3] = tested on: ECHCG; assay: greenhouse pre-emergence herbicidal test; format: in vivo, Echinocloa crus-galli; conditions: pre-emergence method, scale from 0 to 100
# Method in brief: as §1
# [4] = tested on: POLCO; assay: greenhouse post-emergence herbicidal test; format: in vivo, Polygonum convolvulus; conditions: post-emergence method, scale from 0 to 100
# Description: (§3) The seeds of the test plants were sown separately for each species. For the post-emergence treatment, the test plants were first grown to a height of 3 to 15 cm, depending on the plant habit, and only then treated with the active ingredients which had been suspended or emulsified in water. For this purpose, the test plants were either sown directly and grown in the same containers, or they were first grown separately as seedlings and transplanted into the test containers a few days prior to treatment. Depending on the species, the plants were kept at 10-25° C. or 20-35° C., respectively. The test period extended over 2 to 4 weeks. During this time, the plants were tended, and their response to the individual treatments was evaluated. Evaluation was carried out using a scale from 0 to 100. 100 means no emergence of the plants, or complete destruction of at least the aerial moieties, and 0 means no damage, or normal course of growth. […] The plants used in the greenhouse experiments were of the following species: [table]
# [5] = tested on: AMARE; assay: greenhouse post-emergence herbicidal test; format: in vivo, Amaranthus retroflexus; conditions: post-emergence method, scale from 0 to 100
# Description: as §3
# [6] = tested on: ALOMY; assay: greenhouse post-emergence herbicidal test; format: in vivo, Alopercurus myosuroides; conditions: post-emergence method, scale from 0 to 100
# Method in brief: as §2
SMILES,herbicidal activity against APESV ([1]; application rate 500 g/ha),herbicidal activity against ECHCG ([2]; application rate 500 g/ha),herbicidal activity against ECHCG ([3]; application rate 500 g/ha),herbicidal activity against POLCO ([4]; application rate 500 g/ha),further results
Cc1ccccc1-c1cnc(C(C)C)nc1C(=O)O [example 33],very good (a very good herbicidal activity is given at values of at least 85),good (A good herbicidal activity is given at values of at least 70),very good (a very good herbicidal activity is given at values of at least 85),good (A good herbicidal activity is given at values of at least 70),–
CCOc1ncc(-c2ccccc2C)c(C(=O)O)n1 [example 67],very good (a very good herbicidal activity is given at values of at least 85),good (A good herbicidal activity is given at values of at least 70),good (A good herbicidal activity is given at values of at least 70),very good (a very good herbicidal activity is given at values of at least 85),–
CCOc1ncc(-c2cc(C)ccc2C)c(C(=O)O)n1 [example 68],very good (a very good herbicidal activity is given at values of at least 85),good (A good herbicidal activity is given at values of at least 70),very good (a very good herbicidal activity is given at values of at least 85),very good (a very good herbicidal activity is given at values of at least 85),–
CSc1ncc(-c2cc(C)ccc2C)c(C(=O)O)n1 [example 92],–,–,–,–,herbicidal activity against APESV ([1]; application rate 2000 g/ha): good (A good herbicidal activity is given at values of at least 70); herbicidal activity against ECHCG ([2]; application rate 2000 g/ha): good (A good herbicidal activity is given at values of at least 70); herbicidal activity against AMARE ([5]; application rate 2000 g/ha): very good (a very good herbicidal activity is given at values of at least 85); herbicidal activity against ECHCG ([3]; application rate 2000 g/ha): very good (a very good herbicidal activity is given at values of at least 85)
CSc1ncc(-c2ccccc2C(C)C)c(C(=O)O)n1 [example 103],–,–,–,–,herbicidal activity against ECHCG ([2]; application rate 2000 g/ha): very good (a very good herbicidal activity is given at values of at least 85); herbicidal activity against AMARE ([5]; application rate 2000 g/ha): very good (a very good herbicidal activity is given at values of at least 85); herbicidal activity against ECHCG ([3]; application rate 2000 g/ha): good (A good herbicidal activity is given at values of at least 70)
O=C(O)c1nc(C2CC2)ncc1-c1cc(Cl)ccc1Cl [example 143],very good (a very good herbicidal activity is given at values of at least 85),good (A good herbicidal activity is given at values of at least 70),very good (a very good herbicidal activity is given at values of at least 85),very good (a very good herbicidal activity is given at values of at least 85),–
COc1ccc(Cl)c(-c2cnc(C3CC3)nc2C(=O)O)c1 [example 145],very good (a very good herbicidal activity is given at values of at least 85),very good (a very good herbicidal activity is given at values of at least 85),very good (a very good herbicidal activity is given at values of at least 85),very good (a very good herbicidal activity is given at values of at least 85),–
O=C(O)c1nc(C2CC2)ncc1-c1c(F)cc(Cl)cc1Cl [example 148],–,–,–,–,herbicidal activity against ALOMY ([6]; application rate 250 g/ha): very good (a very good herbicidal activity is given at values of at least 85); herbicidal activity against APESV ([1]; application rate 250 g/ha): very good (a very good herbicidal activity is given at values of at least 85); herbicidal activity against POLCO ([4]; application rate 250 g/ha): very good (a very good herbicidal activity is given at values of at least 85)
Cc1cc(-c2cnc(C3CC3)nc2C(=O)O)c(C)cc1F [example 167],–,–,–,–,herbicidal activity against APESV ([1]; application rate 100 g/ha): very good (a very good herbicidal activity is given at values of at least 85); herbicidal activity against ECHCG ([2]; application rate 100 g/ha): very good (a very good herbicidal activity is given at values of at least 85); herbicidal activity against AMARE ([5]; application rate 100 g/ha): good (A good herbicidal activity is given at values of at least 70); herbicidal activity against ECHCG ([3]; application rate 100 g/ha): very good (a very good herbicidal activity is given at values of at least 85)
Cc1ccc(-c2cnc(C3CC3)nc2C(=O)O)c(C)c1 [example 168],very good (a very good herbicidal activity is given at values of at least 85),–,very good (a very good herbicidal activity is given at values of at least 85),very good (a very good herbicidal activity is given at values of at least 85),herbicidal activity against ALOMY ([6]; application rate 500 g/ha): good (A good herbicidal activity is given at values of at least 70)
CCc1ccccc1-c1cnc(C2CC2)nc1C(=O)O [example 174],very good (a very good herbicidal activity is given at values of at least 85),very good (a very good herbicidal activity is given at values of at least 85),very good (a very good herbicidal activity is given at values of at least 85),–,herbicidal activity against AMARE ([5]; application rate 500 g/ha): very good (a very good herbicidal activity is given at values of at least 85)
O=C(O)c1nc(C2CC2)ncc1-c1ccccc1OC(F)F [example 181],very good (a very good herbicidal activity is given at values of at least 85),good (A good herbicidal activity is given at values of at least 70),very good (a very good herbicidal activity is given at values of at least 85),very good (a very good herbicidal activity is given at values of at least 85),–
COC(=O)c1nc(C2CC2)ncc1-c1cccc(F)c1Cl [example 210],very good (a very good herbicidal activity is given at values of at least 85),very good (a very good herbicidal activity is given at values of at least 85),very good (a very good herbicidal activity is given at values of at least 85),very good (a very good herbicidal activity is given at values of at least 85),–
COC(=O)c1nc(C2CC2)ncc1-c1cccc(Cl)c1Cl [example 211],–,–,–,–,herbicidal activity against ALOMY ([6]; application rate 1000 g/ha): very good (a very good herbicidal activity is given at values of at least 85); herbicidal activity against AMARE ([5]; application rate 1000 g/ha): very good (a very good herbicidal activity is given at values of at least 85)
COC(=O)c1nc(C2CC2)ncc1-c1c(C)cccc1C [example 225],very good (a very good herbicidal activity is given at values of at least 85),good (A good herbicidal activity is given at values of at least 70),very good (a very good herbicidal activity is given at values of at least 85),very good (a very good herbicidal activity is given at values of at least 85),–
CCc1ccccc1-c1cnc(C2CC2)nc1C(=O)OC [example 237],–,–,–,–,herbicidal activity against ECHCG ([2]; application rate 1000 g/ha): very good (a very good herbicidal activity is given at values of at least 85); herbicidal activity against AMARE ([5]; application rate 1000 g/ha): very good (a very good herbicidal activity is given at values of at least 85); herbicidal activity against ECHCG ([3]; application rate 1000 g/ha): very good (a very good herbicidal activity is given at values of at least 85)
COC(=O)c1nc(C2CC2)ncc1-c1ccccc1OC(F)F [example 242],–,good (A good herbicidal activity is given at values of at least 70),very good (a very good herbicidal activity is given at values of at least 85),–,herbicidal activity against AMARE ([5]; application rate 500 g/ha): very good (a very good herbicidal activity is given at values of at least 85)
COC(=O)CSC(=O)c1nc(C2CC2)ncc1-c1ccccc1Cl [example 278],very good (a very good herbicidal activity is given at values of at least 85),–,very good (a very good herbicidal activity is given at values of at least 85),very good (a very good herbicidal activity is given at values of at least 85),–
CC(C)(C)SC(=O)c1nc(C2CC2)ncc1-c1ccccc1Cl [example 281],very good (a very good herbicidal activity is given at values of at least 85),–,–,very good (a very good herbicidal activity is given at values of at least 85),herbicidal activity against ALOMY ([6]; application rate 500 g/ha): very good (a very good herbicidal activity is given at values of at least 85)
